Peptide text beside a SMILES is read from it. * marks the point of attachment. Cbz = O=C(OCc1ccccc1)*; CH2F = FC*
How the values were obtained:
[1] = test system: Rat epithelial cells (NRK-52E); assay: Cisplatin-induced LDH release in siControl and siChmp1a transfected cells pretreated with cell death inhibitors; format: cell-based; conditions: siControl and siChmp1a cells pretreated with inhibitor 18 h, then 20 μM cisplatin 24 h
Protocol: Rat epithelial cells (NRK-52E; ATCC (CRL-1571)) were cultured in DMEM with 5% fetal bovine serum (FBS). Dpep1 and Chmp1a siRNA were purchased from Dharmacon. Dpep1-overexpressing vector pCMV6-Entry was purchased from OriGene Technologies, Inc. Transfection of gene-targeting siRNA, negative control siRNA, and overexpressing plasmid were performed using Lipofectamine 3000.
For transfection, cells were seeded in six-well plates, grown overnight until 60-70% confluency, and then transfected with 50 nM (final concentration) siRNA or 5 μg Dpep1-overexpression plasmids. Transfection efficiency was determined under a fluorescence microscope by the presence of Cy3 transfection control. […] After 24 h of Dpep1 siRNA transfection, cells were treated with cell death inducers for 18-20 h, respectively: 5 μM Nigericin (Sigma #N7143); 5 μM CPT (Cayman #11694); 5 μM erastin (Cayman #17754), 20 μM FIN56 (Cayman #25180), 5 μM FINO2 (Cayman #25096) and 5 μM RSL3 (Cayman #19288).
(§1) Mouse primary tubular epithelial cells from wild-type, mutant mice or NRK52E cells were plated in 96-well plate. Transfection of NRK52E cells with siRNA was carried out as described above. […] Cells were harvested and stained with trypan blue (Thermo Fisher #T10282) to visualize dead cells. Cell counts were analyzed in Countess Auto Counter (Invitrogen, C10227). LDH release was quantified using CytoTox 96 Non-Radioactive Cytotoxicity Assay (Promega #G1780). Medium was collected in triplicates, spun down, and incubated in a 96-well plate with the CytoTox reagent for 20-30 min. After adding the stop solution, the absorbance signal was measured at 490 nm in a plate reader. The ratio between dead cell and live cell was calculated through the measurement using MultiTox-Fluor Multiplex Cytotoxicity Assay (Promega #9201). Cells were incubated in assay buffer containing live cell substrate GF-AFC and dead cell substrate bis-AAF-R110 for 30 min at 37° C. The plate fluorescence was measured using a plate reader as following: viability: excitation ˜400 nm; emission ˜505 nm. cytotoxicity: excitation ˜485 nm; emission ˜520 nm.

[2] = biological target: FASN (Mus musculus, UniProt P19096); conditions: primary TECs; various concentrations for 48 h
Chain of FASN (P19096 whole entry): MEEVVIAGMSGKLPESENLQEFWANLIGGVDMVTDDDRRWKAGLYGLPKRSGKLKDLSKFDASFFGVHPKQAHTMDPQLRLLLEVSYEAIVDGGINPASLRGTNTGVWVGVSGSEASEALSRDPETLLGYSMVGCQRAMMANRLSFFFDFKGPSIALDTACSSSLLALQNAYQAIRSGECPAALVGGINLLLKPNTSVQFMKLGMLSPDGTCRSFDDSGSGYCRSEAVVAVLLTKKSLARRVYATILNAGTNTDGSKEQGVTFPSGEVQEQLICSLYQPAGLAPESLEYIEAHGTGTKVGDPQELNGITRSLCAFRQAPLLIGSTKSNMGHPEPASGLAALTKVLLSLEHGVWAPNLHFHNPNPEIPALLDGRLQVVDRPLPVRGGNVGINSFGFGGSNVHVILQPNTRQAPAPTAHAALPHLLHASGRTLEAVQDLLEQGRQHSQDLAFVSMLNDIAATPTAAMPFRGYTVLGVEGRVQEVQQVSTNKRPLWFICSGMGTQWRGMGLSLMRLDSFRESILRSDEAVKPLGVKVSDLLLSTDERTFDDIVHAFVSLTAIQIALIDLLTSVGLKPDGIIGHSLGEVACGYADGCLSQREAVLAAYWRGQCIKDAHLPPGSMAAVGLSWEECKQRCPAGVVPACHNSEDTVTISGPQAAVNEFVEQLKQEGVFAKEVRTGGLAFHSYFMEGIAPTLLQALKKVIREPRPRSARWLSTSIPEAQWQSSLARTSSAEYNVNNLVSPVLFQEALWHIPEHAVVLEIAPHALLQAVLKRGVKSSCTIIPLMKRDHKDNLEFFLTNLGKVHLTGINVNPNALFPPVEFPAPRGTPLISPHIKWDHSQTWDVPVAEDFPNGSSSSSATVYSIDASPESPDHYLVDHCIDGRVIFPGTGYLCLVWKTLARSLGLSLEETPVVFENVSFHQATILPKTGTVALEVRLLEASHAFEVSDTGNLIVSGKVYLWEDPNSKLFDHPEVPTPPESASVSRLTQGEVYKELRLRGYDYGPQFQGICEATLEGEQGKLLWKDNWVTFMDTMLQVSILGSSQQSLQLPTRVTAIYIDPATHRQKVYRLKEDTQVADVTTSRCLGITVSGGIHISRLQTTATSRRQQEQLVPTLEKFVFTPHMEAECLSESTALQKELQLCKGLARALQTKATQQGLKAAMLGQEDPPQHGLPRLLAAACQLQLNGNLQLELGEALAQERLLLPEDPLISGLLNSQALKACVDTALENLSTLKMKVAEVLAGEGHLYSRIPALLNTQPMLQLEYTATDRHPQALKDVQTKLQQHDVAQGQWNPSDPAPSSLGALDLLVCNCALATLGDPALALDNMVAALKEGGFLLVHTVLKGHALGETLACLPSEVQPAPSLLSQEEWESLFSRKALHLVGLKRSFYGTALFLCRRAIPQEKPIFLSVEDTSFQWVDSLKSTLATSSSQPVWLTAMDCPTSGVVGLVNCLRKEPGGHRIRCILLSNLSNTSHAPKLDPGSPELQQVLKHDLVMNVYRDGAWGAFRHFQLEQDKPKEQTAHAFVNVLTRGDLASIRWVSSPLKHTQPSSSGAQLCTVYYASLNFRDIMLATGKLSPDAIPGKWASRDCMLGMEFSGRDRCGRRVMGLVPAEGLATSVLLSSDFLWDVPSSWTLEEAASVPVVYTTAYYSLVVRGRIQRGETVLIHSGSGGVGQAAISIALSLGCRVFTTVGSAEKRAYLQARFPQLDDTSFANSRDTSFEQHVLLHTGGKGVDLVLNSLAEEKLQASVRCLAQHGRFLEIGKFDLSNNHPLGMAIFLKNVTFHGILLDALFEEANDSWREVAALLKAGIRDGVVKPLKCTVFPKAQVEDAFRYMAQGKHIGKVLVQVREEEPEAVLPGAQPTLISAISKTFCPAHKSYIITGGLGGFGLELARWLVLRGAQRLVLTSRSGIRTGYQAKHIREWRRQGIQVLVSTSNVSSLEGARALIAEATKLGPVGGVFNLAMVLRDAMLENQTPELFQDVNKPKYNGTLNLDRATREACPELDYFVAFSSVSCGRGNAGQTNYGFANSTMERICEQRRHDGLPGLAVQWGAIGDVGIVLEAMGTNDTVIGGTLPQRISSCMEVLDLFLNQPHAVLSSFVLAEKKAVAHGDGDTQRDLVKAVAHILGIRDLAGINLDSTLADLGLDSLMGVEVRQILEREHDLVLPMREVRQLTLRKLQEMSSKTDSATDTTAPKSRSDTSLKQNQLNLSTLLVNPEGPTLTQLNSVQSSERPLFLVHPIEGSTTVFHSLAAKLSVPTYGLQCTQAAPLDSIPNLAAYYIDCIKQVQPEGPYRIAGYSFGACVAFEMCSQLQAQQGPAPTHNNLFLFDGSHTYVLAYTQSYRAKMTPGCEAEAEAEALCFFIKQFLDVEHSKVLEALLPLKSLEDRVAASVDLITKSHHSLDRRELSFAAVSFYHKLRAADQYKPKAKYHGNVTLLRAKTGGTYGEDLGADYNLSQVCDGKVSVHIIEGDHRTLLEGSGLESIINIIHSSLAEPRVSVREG

[3] = biological target: T1, CASP9 (Mus musculus, UniProt Q8C3Q9); assay: Cisplatin model of kidney injury, mice treated with CASP9 inhibitor; format: in vivo
T1 construct: from tissue; host or cells: living mice; read-outs in serum and kidney
T1 sequence (Q8C3Q9 whole entry): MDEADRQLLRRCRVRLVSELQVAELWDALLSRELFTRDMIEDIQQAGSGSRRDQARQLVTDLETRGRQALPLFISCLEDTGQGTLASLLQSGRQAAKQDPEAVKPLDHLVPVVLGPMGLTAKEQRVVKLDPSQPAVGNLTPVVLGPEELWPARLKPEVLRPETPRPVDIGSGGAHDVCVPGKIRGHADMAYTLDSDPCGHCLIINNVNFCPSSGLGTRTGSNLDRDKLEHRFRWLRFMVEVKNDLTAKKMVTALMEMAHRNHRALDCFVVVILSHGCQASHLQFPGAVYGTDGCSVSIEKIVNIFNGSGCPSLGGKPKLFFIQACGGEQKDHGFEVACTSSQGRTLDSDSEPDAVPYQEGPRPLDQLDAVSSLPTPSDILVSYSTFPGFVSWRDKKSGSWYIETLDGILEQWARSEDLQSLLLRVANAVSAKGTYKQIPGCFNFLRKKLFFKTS
T1 sequence (O88879 whole entry partner): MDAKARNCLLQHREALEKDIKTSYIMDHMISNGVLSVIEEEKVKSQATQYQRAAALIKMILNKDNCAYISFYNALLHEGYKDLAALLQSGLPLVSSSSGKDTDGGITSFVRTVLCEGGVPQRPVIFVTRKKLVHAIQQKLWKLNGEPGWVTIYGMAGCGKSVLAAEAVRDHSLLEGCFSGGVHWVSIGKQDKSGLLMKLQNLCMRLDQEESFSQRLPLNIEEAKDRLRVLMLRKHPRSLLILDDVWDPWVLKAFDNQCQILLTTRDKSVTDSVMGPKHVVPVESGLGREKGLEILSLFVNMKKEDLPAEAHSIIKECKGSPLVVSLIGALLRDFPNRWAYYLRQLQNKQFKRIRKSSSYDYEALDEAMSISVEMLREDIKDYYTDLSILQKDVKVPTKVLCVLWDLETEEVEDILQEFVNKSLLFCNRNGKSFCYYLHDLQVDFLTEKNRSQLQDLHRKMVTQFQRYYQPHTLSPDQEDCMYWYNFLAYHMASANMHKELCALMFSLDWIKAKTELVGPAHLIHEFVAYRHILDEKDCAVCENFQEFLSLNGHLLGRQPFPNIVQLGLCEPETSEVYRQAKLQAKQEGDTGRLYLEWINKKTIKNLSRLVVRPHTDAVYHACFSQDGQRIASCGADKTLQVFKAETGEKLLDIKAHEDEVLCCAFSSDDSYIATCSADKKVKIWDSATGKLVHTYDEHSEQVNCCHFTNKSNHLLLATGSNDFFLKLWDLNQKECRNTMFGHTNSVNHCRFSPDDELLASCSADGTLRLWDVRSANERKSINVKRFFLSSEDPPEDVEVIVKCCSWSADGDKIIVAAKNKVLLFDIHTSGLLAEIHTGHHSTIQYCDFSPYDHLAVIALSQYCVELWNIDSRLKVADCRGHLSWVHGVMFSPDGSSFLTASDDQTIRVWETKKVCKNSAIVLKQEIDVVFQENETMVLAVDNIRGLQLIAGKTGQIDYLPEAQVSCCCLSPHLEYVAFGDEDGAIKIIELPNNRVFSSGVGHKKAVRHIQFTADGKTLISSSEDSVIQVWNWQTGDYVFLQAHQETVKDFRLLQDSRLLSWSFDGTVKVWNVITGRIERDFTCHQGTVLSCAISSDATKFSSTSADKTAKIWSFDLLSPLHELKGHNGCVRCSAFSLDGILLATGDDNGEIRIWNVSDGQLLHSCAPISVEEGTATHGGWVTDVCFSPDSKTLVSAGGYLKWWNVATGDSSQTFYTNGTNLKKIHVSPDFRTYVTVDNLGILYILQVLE
T1 sequence (P62897 2-105 partner limits assumed): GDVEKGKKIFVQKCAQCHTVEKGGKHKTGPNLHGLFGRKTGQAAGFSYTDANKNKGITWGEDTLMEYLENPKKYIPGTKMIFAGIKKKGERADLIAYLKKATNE
Protocol: Casp9 HZ mice were obtained. Mice were injected intraperitoneally with FA (#10752485 ACROS Organics, 250 mg/kg, dissolved in […] sodium bicarbonate) or sodium bicarbonate (#56014, Sigma-Aldrich) and euthanized on day 7. Mice were euthanized on day 7 after left ureteral ligation or sham surgery. […] Mice were euthanized 18 weeks after uninephrectomy and following low-dose STZ (50 mg/kg, i.p. for 5 days) (streptozotocin, Santa Cruz Biotechnology, #U-9889) or PBS injection. Aging mice were euthanized at 2 years of age. Transgenic mice (Nphs1-rtTA/TRE-APOL1-G2) were placed on a doxycycline diet to induce transgene expression and euthanized.
RNA was isolated from kidney tissue or cells using TRIzol (Invitrogen, #15596018). RNA was reverse-transcribed using the High-Capacity cDNA Reverse Transcription Kit (Applied Biosystems, #4368813), and qRT-PCR was run in the ViiA 7 System (Life Technologies) instrument using SYBR Green Master Mix (Applied Biosystems, #4367659) and gene-specific primers. For quantitative analysis, samples were normalized to glyceraldehyde-3-phosphate dehydrogenase (GAPDH) with the ΔΔCt method.
BUN was determined by a TRACE DMA Urea kit (Thermo Electron Corporation, #TR12003), according to the manufacturer's instructions. Electrolytes (Na, K, and Cl) and hemoglobin were measured with the iSTAT Portable Clinical Analyzer using i-STAT CHEM8+ cartridge (Abaxis, #10023291). Kidney tissue was stained with hematoxylin and eosin to investigate renal injury. The degree of tubulointerstitial damage was scored semiquantitatively on a 0 to 5+ scale, according to the percentage of the area affected by hydropic degeneration, hyaline casts, cytoplasmic vacuolization, loss of the brush border, and tubular lumen dilation (0=normal, 1=<10%, 2=10 to 25%, 3=26 to 50%, 4=51 to 75%, and 5=>75%). Sirius red staining was performed according to the manufacturer's protocol (Polysciences, #24901) to determine the degree of fibrosis. For each analysis, five to eight fields were randomly selected and quantified using the Fiji software. Each dot represents the mean score of a single animal.
Several small molecular inhibitors that target CASP9 have been developed with good specificity. […] Serum creatinine and BUN levels were lower, and renal expression of Havcr1 was dampened in Z-LEHD-FMK-treated mice.

[4] = test system: primary TECs; assay: Cisplatin-treated primary kidney tubule cells from wild-type and Chmp1a+/- mice; format: cell-based
Protocol: For primary culture of renal tubule cells, kidneys were collected from 2- to 4-week-old male mice. Cells were isolated by 2 mg/ml collagenase I (Gibco #17018-029) digestion for 30 min at 37° C. with gentle stirring and filtered through a 100-μm mesh. The cell suspension was cultured in RPMI 1640 (Corning #10-040-CM) supplement with 10% FBS (Atlanta Biologicals #S11950), 20 ng/ml EGF (Peprotech #AF-100-15), 1×ITS (Gibco #51500-056), and 1% penicillin-streptomycin (Corning #30-002-CI) at 5% CO2 and 37° C.
Primary cultured renal tubule cells or NRK52E cells were incubated with 1 μM transferrin (Thermo Fisher #T13342) for 4 h, or 5 μM mitoSOX (ThermoFisher #M36008) for 10 min, or 2 μM BODIPY™ 581/591 C11 (Thermo Fisher #D3861) for 0.5 h, or 20 ng/ml dextran conjugated to 488 (Thermo Fisher #D22910) for 2 h, at 5% CO2 and 37° C., respectively. After washing with PBS, cells were imaged directly under the confocal or regular fluorescence microscope.
as §1

[5] = test system: ferroptosis; assay: Cisplatin-induced injury in Chmp1a+/- mice injected with liproxstatin; format: in vivo; conditions: for protection from cisplatin-induced injury / kidney disease: Chmp1a+/- (heterozygous) mice
Protocol: Eight- to ten-week-old male mice were used in this study. All mice were maintained under SPF conditions with ambient temperature 20-22, humidity 50-70%, and a 12/12 h light/dark cycle. All animal experiments were reviewed and approved and were performed in accordance with the institutional guidelines. Dpep1 mutant mice were generated by co-injection of Cas9 mRNA (100 ng/μl; ThermoFisher, A29378), sgRNA (50 ng/μl) in CRISPR Cas9 Mouse Targeting Core of University of Pennsylvania. Two sgRNAs were generated with Guide-it™ sgRNA In Vitro Transcription Kit (Takara #632635). Chmp1a mutant mice were imported from Mutant Mouse Regional Resource Center of UC Davis (#031089-UCD). For FA-induced nephropathy mouse models, 8-week-old male wild-type and Dpep1^+/− or Chmp1a^+/− mice were injected with FA (250 or 200 mg/kg, dissolved in 300 mM sodium bicarbonate) intraperitoneally and euthanized on day 7. […] Mice were euthanized on day 3. For the UUO model, mice underwent ligation of the left ureter and were euthanized on day 7, and sham-operated mice were used as controls.
Serum creatinine was measured by Creatinine Enzymatic and Creatinine Standard (DIAZYME #DZ072B-KY1). Serum BUN was measured by Infinity™ Urea Liquid Stable Reagent (Pointe Scientific #B7552150). Both measurements were performed according to the manufacturers' instructions.
RNA was isolated from mouse kidneys or cultured cells using Trizol reagent (Invitrogen) and was reverse transcribed into cDNA using cDNA Archival Kit (Life Technologies). Real-time RT-PCR was performed using SYBR Green Master Mix (Applied Biosystems).

[6] = cisplatin-injected mice, inhibitor daily starting 1 day before cisplatin, vs vehicle

CN1C(=O)C(Cc2c[nH]c3ccccc23)NC1=S (stereo not shown) [Nec-1, necrostatin-1]
LDH release [1]: No change

COCc1[nH]c(C(F)(F)F)nc1-c1cc(C(=O)N2CC(c3ccc(C#N)cc3)C2)c(C)cc1C [TVB-3664]
cell death (cell viability) [2]: did not increase cell death

CCO[C@@H]1OC(=O)C[C@@H]1NC(=O)[C@@H]1CCCN1C(=O)[C@@H](NC(=O)c1ccc(N)c(Cl)c1)C(C)(C)C [Vx765]
LDH release [1]: No change

COC(=O)CC[C@H](NC(=O)[C@H](CC(C)C)NC(=O)OCc1ccccc1)C(=O)N[C@@H](Cc1cnc[nH]1)C(=O)N[C@@H](CC(=O)OC)C(=O)CF [Z-LEHD-FMK] (Cbz-LE(OMe)HD(OMe)-CH2F)
inflammatory cytokines (Il1b, Csf2, Tnfa, and Cxcl10) and Icam1 expression ([3]; after cisplatin injury, qRT-PCR, kidney): lower
kidney function and kidney damage ([3]; cisplatin-injected mice): improved kidney function and lessened kidney damage
BUN level [3, 6]: lower
serum creatinine level [3, 6]: lower
renal expression of Havcr1 ([3]; cisplatin-injected mice, vs vehicle): dampened

COC(=O)C[C@H](NC(=O)[C@H](C)NC(=O)[C@@H](NC(=O)OCc1ccccc1)C(C)C)C(=O)CF [Z-VAD-FMK] (Cbz-Val-Ala-Asp(OMe)-CH2F)
LDH release [1]: No change

Clc1cccc(CN=C2Nc3ccccc3NC23CCNCC3)c1 [liproxstatin1]
LDH release [1]: reduced this effect
cisplatin-induced cytotoxicity ([4]; Chmp1a+/- primary TECs, compared with inhibitors of necroptosis, apoptosis, pyroptosis): alleviated
lipid peroxidation (C11 BODIPY 581/591) induced by cisplatin ([4]; primary TECs from wild-type or Chmp1a+/- mice): lower
protection from cisplatin-induced injury / kidney disease ([5]; listed as Liproxstatin1): protected
protection from cisplatin-induced injury / kidney disease ([5]; listed as liproxstatin): marked protection
Kidney injury marker Kim1 ([5]; Chmp1a+/- mice, cisplatin): lower
serum creatinine level ([5]; Chmp1a+/- mice, cisplatin): reduced
